Legend:
[1] = test system: outpatients 65 years of age or older with major depressive disorder (MDD); test: Efficacy outcome measures (HDRS-17, GDS) in double-blind mirtazapine vs paroxetine study, stratified by 5HTTLPR genotype; type: in vivo, human; conditions: for HAMD-17 or GDS, differences among the three genotype groups: patients stratified by 5HTTLPR genotype (S/S, S/L, L/L), any time point
Description: Genet. 8(3):193-195 (1998).

[2] = test system: outpatients 65 years of age or older with major depressive disorder (MDD); conditions: in vivo
Description: (§1) The study group included 255 outpatients 65 years of age or older with major depressive disorder (MDD) who were randomized to mirtazapine or paroxetine in a double-blind design at 18 U.S. centers. Details of the study design and overall clinical outcomes have been previously described (Schatzberg et al., Am J Geriatr Psychiatry 10(5):541-550 (2002)). […] At baseline all patients scored above the age-adjusted 25th percentile on the Mini Mental State Exam (MMSE), and all had Hamilton Depression Rating Scale (HDRS-17) scores ≧18. Starting doses were 15 mg for mirtazapine and 20 mg for paroxetine. Dosage for both medications was increased to 30 mg after 14 days, with the option to increase to 45 mg of mirtazapine or 40 mg of paroxetine on subsequent visits. Exclusion criteria were clinically significant unstable medical illness, history of treatment resistance, principal psychiatric diagnoses other than MDD, use of other psychotropics, and electroconvulsive therapy (ECT) within the previous 6 months.
(§2) Genomic DNA was extracted from EDTA-treated frozen whole blood by using a Puregene Kit (Gentra Systems, Minneapolis). 5HTTLPR genotypes were determined by PCR and gel electrophoresis as described in Edenberg et al., Psychiatr. Genet. 8(3):193-195 (1998).
(§3) Plasma drug levels were obtained after 4 weeks of treatment as described (Murphy et al., Biol Psychiatry 54:665-673 (2003)). Efficacy outcome measures (determined at baseline and at day 7,14, 21, 28, 42, and 56) included the Hamilton Depression Rating Scale (HDRS-17) (Hamilton et al., Br J Soc Clin Psychol. 6(4):278-296 (1967)) and the Geriatric Depression Scale (GDS) (Yesavage et al., J. Psychiat. Res. 17:37-49 (1983)). Measures related to adverse events included Medication Compliance, Severity of Adverse Events, Time to Discontinuation of Treatment Regimen due to an adverse event, and number of discontinuations due to an adverse event. Statistical methods included analyses of covariance (adjusted for baseline scores), Cochran-Mantel-Haenszel statistics, and Kaplan-Meier survival analyses. […] Analyses were performed for the entire group and also with 20 ethnic minority patients omitted.

[3] = in vivo
Description: as §1, §2, §3

Fc1ccc([C@@H]2CCNC[C@H]2COc2ccc3c(c2)OCO3)cc1 [paroxetine]
HDRS, carriers of the S allele vs others ([1]; FIG. 2B): No differences | GDS scores, carriers of the S allele ([1]; days 7 (p=0.003) and 28 (p=0.04), adjusted for baseline body weight, higher = more depressed): significantly higher scores | HAMD-17 or GDS, differences among the three genotype groups [1]: no significant differences | subjects who discontinued treatment regimen due to adverse events, 5HTTLPR S/S and 5HT2A C/C genotypes ([2]; human): 7 of 10 | adverse events associated with S/S discontinuations [2]: gastrointestinal complaints, fatigue, agitation, sweating, and dizziness | effects of 5HTTLPR and 5HT2A 102 T/C on discontinuation of treatment regimen due to adverse events [2]: significant effects | frequency of discontinuation of treatment regimen, L/L genotype [2]: fewest | frequency of discontinuation of treatment regimen, S/L genotype [2]: intermediate frequency | frequency of discontinuation of treatment regimen, S/S genotype [2]: most frequent | interaction term 5HTTLPR x 5HT2A 102 T/C on discontinuation due to adverse events [2]: not significant | relationship between number of S alleles and discontinuations due to adverse events, Caucasian patients [2]: positive linear relationship | relationship between number of S alleles and probability of discontinuation due to adverse events [2]: positive linear relationship | risk of discontinuation of the treatment regimen due to adverse events, S/L vs L/L genotype [2]: significantly greater risk | severity of adverse events, S/S vs L/L genotype [2]: greater severity | subjects who discontinued treatment regimen, L/L and T/T genotypes [2]: none

CN1CCN2c3ncccc3Cc3ccccc3C2C1 (stereo not drawn) [mirtazapine]
GDS scores, S carriers vs others ([1]; after adjusting for baseline difference, any subsequent time point): not significantly different | HDRS scores, S allele carriers ([1]; day 14, less depressed, p<0.27): lower HDRS scores | HAMD-17 or GDS, differences among the three genotype groups [1]: no significant differences | adverse events associated with L/L genotype discontinuations [2]: drowsiness, dizziness, and anxiety | frequency of discontinuation of treatment regimen, L/L genotype [2]: most frequent | relationship between number of L alleles and discontinuation due to adverse events, Caucasian patients [2]: positive linear relationship | relationship between number of L alleles and probability of discontinuation due to adverse events [2]: positive linear relationship | severity of adverse events, L/L vs S/S genotype [2]: greater severity | plasma levels at day 28, differences among the genotype groups [3]: no significant differences
